Assays:
Peregrin (Homo sapiens) = biological target: T1, Peregrin (Homo sapiens) (UniProt P55201); conditions: Compound concentration 20.0 uM, Protein concentration 2.0 uM, Result type QC Liability
T1 sequence (whole entry): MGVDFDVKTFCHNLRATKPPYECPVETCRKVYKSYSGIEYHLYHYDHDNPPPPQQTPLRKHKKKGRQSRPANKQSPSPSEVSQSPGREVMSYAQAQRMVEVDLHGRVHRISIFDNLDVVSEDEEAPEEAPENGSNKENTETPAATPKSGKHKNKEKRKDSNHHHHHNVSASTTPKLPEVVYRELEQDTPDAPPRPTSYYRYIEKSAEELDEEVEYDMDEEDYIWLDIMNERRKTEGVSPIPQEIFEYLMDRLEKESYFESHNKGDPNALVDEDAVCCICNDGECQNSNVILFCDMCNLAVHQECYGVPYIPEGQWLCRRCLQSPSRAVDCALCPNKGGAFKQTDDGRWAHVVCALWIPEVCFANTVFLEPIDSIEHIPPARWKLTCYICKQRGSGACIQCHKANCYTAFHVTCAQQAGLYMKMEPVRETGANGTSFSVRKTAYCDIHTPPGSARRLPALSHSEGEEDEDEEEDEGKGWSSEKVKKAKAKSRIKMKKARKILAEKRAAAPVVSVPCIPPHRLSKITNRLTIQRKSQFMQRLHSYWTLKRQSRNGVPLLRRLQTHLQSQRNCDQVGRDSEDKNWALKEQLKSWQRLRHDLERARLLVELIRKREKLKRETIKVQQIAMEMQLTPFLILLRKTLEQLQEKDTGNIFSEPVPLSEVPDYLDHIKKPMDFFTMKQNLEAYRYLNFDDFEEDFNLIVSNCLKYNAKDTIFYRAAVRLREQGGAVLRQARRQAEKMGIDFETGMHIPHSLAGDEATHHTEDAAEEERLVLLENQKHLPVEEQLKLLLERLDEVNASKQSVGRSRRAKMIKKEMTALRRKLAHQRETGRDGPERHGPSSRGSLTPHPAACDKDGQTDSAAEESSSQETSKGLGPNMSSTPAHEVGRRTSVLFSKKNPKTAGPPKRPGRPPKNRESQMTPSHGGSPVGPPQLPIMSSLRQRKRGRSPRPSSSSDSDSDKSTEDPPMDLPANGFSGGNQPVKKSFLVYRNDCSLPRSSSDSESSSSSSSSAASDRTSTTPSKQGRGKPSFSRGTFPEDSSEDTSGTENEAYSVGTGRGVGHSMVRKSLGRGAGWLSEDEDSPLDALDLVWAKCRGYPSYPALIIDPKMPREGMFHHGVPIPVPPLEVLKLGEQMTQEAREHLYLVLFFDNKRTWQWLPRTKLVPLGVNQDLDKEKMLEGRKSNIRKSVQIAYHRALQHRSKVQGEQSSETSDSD

[1] = biological target: Fibroblast growth factor receptor 3 (Homo sapiens) (UniProt P22607); conditions: Compound concentration 20.0 uM, Protein concentration 2.0 uM, Result type QC Liability
Fibroblast growth factor receptor 3 (Homo sapiens), sequence (P22607 23-806 limits assumed): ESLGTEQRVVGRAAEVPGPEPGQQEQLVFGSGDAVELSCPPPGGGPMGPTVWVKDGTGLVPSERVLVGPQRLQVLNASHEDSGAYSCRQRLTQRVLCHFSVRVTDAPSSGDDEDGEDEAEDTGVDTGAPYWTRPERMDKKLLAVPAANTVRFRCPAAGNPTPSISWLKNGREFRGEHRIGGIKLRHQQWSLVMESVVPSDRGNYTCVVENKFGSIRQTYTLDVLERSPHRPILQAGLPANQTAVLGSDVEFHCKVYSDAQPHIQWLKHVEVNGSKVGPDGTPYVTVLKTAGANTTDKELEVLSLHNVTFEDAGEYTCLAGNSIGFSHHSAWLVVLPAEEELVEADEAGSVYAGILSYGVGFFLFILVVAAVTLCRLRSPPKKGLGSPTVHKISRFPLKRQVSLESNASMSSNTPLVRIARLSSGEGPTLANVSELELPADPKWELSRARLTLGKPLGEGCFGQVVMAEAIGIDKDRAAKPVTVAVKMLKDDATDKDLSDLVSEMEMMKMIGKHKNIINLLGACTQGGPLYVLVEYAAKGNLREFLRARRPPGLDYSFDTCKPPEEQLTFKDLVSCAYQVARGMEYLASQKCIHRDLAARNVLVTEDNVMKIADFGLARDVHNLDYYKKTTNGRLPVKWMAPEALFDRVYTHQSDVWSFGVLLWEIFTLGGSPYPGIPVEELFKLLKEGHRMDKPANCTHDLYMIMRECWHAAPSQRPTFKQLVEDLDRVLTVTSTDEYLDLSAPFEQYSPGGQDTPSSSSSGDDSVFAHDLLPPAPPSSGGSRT
Description: Thermal Shift Assay. Domain: start/stop: P449-E759

Row | SMILES | ΔTm (Peregrin (Homo sapiens)) | ΔTm [1]
1 | CCn1c(-c2nonc2N)nc2ccccc21 | -1.24 °C | 0.81 °C
2 | C[C@@H](CO)CCC[C@@H](C)[C@H]1CC[C@H]2[C@@H]3CC=C4C[C@@H](O)CC[C@]4(C)[C@H]3CC[C@]12C | -1.97 °C | 0.9 °C
3 | COc1nc2ccc([C@@](O)(c3ccc(Cl)cc3)c3cncn3C)cc2c(Cl)c1Cc1ccc(-n2cccn2)cc1 | -1.33 °C | -1.77 °C
4 | CS(=O)(=O)CCNCc1ccc(-c2ccc3ncnc(Nc4ccc(OCc5cccc(F)c5)c(Cl)c4)c3c2)o1 | -1.41 °C | 0.79 °C
5 | COc1ccccc1[C@@H]1CNCCC12CCN(C(=O)[C@](OC)(c1ccccc1)C(F)(F)F)CC2 | -1.57 °C | 0.45 °C
6 | CCCCCNC(=O)N1CCC(CN(Cc2ccc(Cl)cc2)Cc2ccc([N+](=O)[O-])s2)C1 (stereo not given) | -0.19 °C | 0.77 °C
7 | O=C(O)C[C@H]1CC[C@H](c2ccc(NC(=O)c3nnc(Nc4ccc(F)c(F)c4)o3)cc2)CC1 | -2.89 °C | 0.79 °C
8 | CNC(=O)c1c[nH]c2ccc(Nc3nccc(-c4ccccn4)n3)cc12 | -0.15 °C | 0.22 °C
9 | Cc1nc2ccc(Cl)cc2c(-c2ccccc2)c1CC(=O)O | -3.32 °C | 0.68 °C
10 | CC(C)c1nc2c(c3c1[C@H](c1ccc(C(F)(F)F)cc1)OC31CCOCC1)[C@H](O)CC(C)(C)C2 | -3.09 °C | 0.52 °C
11 | Cc1cc(S(=O)(=O)N2CC(C)(C)c3cc(-c4ccc(C(F)(F)F)cc4)ccc32)ccc1OCC(=O)O | -7.85 °C | 0.47 °C
12 | Cc1cc(C2CCCNC2)ccc1Nc1ncc(Br)c(NCc2cccc3c2C(C)(C)C(=O)N3)n1 (stereo not given) | -1.21 °C | 2.52 °C
13 | Cc1nc2cccnc2n2c(-c3cc([C@@]4(O)CCCOC4)ccc3Cl)nnc12 | -2.38 °C | 0.59 °C
14 | CNc1ncc2cc(-c3ccc(-c4cccc(C)n4)cc3Cl)c(=O)n(C[C@H]3OC[C@H](N)CO3)c2n1 | -2.41 °C | 1.85 °C
15 | C[C@@H](Oc1cc(-n2cnc3ccc(OC4CCN(C)CC4)cc32)sc1C(N)=O)c1ccccc1Cl | 0.36 °C | 3.37 °C
16 | CN(C)[C@H]1CCN(c2cc(C(F)(F)F)c(C#N)c(Nc3cccc(CCC(=O)O)c3)n2)C1 | -2.19 °C | 1 °C
17 | Cn1nc(-c2ccc(C(N)=O)cc2)c2ccccc2c1=O | -1.74 °C | 1.06 °C
18 | O=C(O)CCC/C=C\C[C@@H]1[C@@H](/C=C/[C@@H](O)COc2cccc(C(F)(F)F)c2)[C@H](O)C[C@@H]1O | -2.28 °C | 0.51 °C
19 | CC(F)(F)CN1C(=O)c2[nH]nc(-c3cccc4[nH]c(=O)oc34)c2C1c1ccc(Oc2cc(C(F)(F)F)cc(C(F)(F)F)c2)cc1 (stereo not given) | -0.66 °C | -5.32 °C
20 | CCCn1cc(-c2cc(C3C(=O)N(CC)c4ccc(C(F)(F)F)cc4N(c4ccccc4)C3=O)cc(OC)c2O)cn1 (stereo not given) | -1.21 °C | 0.46 °C
21 | CN(C)c1ccc(-c2cc3ncccc3c(OCCCCO)n2)cc1 | -2.48 °C | 3.37 °C
22 | CCS(=O)(=O)Nc1cccc(Oc2cc(F)cc(Nc3ccc(I)cc3F)c2NS(=O)(=O)C2CC2)c1 | -1.34 °C | -1.54 °C
23 | CCN1C(=O)c2cc(C)ccc2N(C)c2ncccc21 | -1.83 °C | 0.59 °C
24 | CC(=O)Nc1cccc(-n2c(=O)n(C3CC3)c(=O)c3c(Nc4ccc(I)cc4F)n(C)c(=O)c(C)c32)c1 | -0.16 °C | 0.38 °C
25 | C[C@@H]1C[C@H](C)CN(c2ncc(Cl)c(Nc3ccc4c(c3)cc(OC(C)(C)C(=O)O)c(=O)n4C)n2)C1 | -3.96 °C | 0.41 °C
26 | CC(=O)c1c(C)c2cnc(Nc3ccc(N4CCN(CCOCCOCCOCCNC(=O)COc5cccc6c5C(=O)N(C5CCC(=O)NC5=O)C6=O)CC4)cn3)nc2n(C2CCCC2)c1=O (stereo not given) | -1.99 °C | 0.48 °C
27 | CC(C=CC1=C(C)CCCC1(C)C)=CC=CC(C)=CC(=O)O | -2.28 °C | 0.68 °C

Row | SMILES | ΔTm (Peregrin (Homo sapiens)) | ΔTm [1]
28 | Cc1c(NC(=O)c2ccc(C(C)(C)C)cc2)cccc1-c1cn(C)c(=O)c(Nc2ccc(C(=O)N3CCOCC3)cc2)n1 | -4.33 °C | 0.54 °C
29 | Cc1nc2ccccc2c(-c2ccc3c4c(ccnc24)CCO3)c1[C@H](OC(C)(C)C)C(=O)O | -2.17 °C | 0.36 °C
30 | C[C@@H]1CC(=O)N(C2CC2)N=C1c1ccc(NC(=O)N2Cc3ccncc3C2)cc1 | -2.03 °C | 0.58 °C
31 | O=C(O)CCCCN(CCc1cc(F)ccc1OCc1ccc(-c2ccc(C(F)(F)F)cc2)cc1)Cc1ccc(C(=O)O)cc1 | -3.03 °C | -0.36 °C
32 | O=C(NCCS(=O)(=O)c1ccc(C(F)(F)F)cn1)c1ccc(Cl)cc1 | -0.99 °C | 0.38 °C
33 | Cc1cc(OCc2nc3ccccc3s2)ccc1NC(=O)Nc1ccc(Cl)c(Cl)c1 | -2.19 °C | 0.81 °C
34 | Cc1n[nH]c2ncc(C(=O)N3CCC[C@H]3c3ccc(Cl)cc3)cc12 | -1.04 °C | 0.54 °C
35 | Oc1c(-c2cccnc2)cnn1-c1ccccn1 | -1.78 °C | 0.56 °C
36 | COc1cc(Nc2cnc(C#N)c(O[C@H](C)CN(C)C)n2)ncc1-c1cnn(C)c1 | -0.27 °C | 1.26 °C
37 | Cc1nnc2n1-c1sc(CCC(=O)N3CCOCC3)cc1C(c1ccccc1Cl)=NC2 | -2.21 °C | 1.44 °C
38 | CC1CCN(C(=O)[C@H](CCn2cccc2C#N)NS(=O)(=O)c2cccc3[nH]ccc23)CC1 | -2.12 °C | 0.35 °C
39 | O=C1COc2cc(C(=O)N(Cc3ccc(C(=O)Nc4ccncn4)cc3)C3CC3)ccc2N1 | -0.77 °C | 0.74 °C
40 | Fc1ccc(-c2c3cccc(C(F)(F)F)c3nn2Cc2ccc(F)cc2Cl)cc1 | -2.25 °C | 0.67 °C
41 | N#Cc1c(SCc2csc(-c3ccc(Cl)cc3)n2)nc(N2CCCC2)c(C#N)c1-c1ccc(OCCO)cc1 | -3.79 °C | 1.06 °C
42 | O=C1NC(=NCc2cccs2)SC1=Cc1ccc2ncccc2c1 | -1.16 °C | 0.61 °C
43 | CCc1ccccc1C(=O)Nc1n[nH]c2c(C)c(F)c(C3C(C#N)=C(C)N(C)C(C)=C3C#N)cc12 | -1.74 °C | 2.59 °C
44 | Cc1csc(-c2nnc(Nc3ccc(Oc4ncccc4-c4ccnc(N)n4)cc3)c3ccccc23)c1 | -5.77 °C | -1.73 °C
45 | CCOc1ccc(S(=O)(=O)Nc2ccc(Cl)cc2C#Cc2cnc(C(=O)O)cc2OC)c2ncccc12 | -1.33 °C | -5.78 °C
46 | C[C@@H]1CN(CC(=O)N2CC(C)(C)c3nc(CO)c(Cc4ccc(F)cc4)cc32)[C@@H](CN2CCOC[C@H]2C)CN1 | -2.93 °C | 0.45 °C
47 | Cc1cc(CN(CC(=O)Nc2ccc(Cl)cc2Cl)C2CCCCC2)ccc1OCC(=O)O | -6.07 °C | -0.33 °C
48 | CCN1C(=O)N(c2c(F)c(OC)cc(OC)c2F)Cc2cnc3[nH]c(CN4CCOCC4)cc3c21 | -0.68 °C | 11.8 °C
49 | C[C@@H]1CCNC(=O)c2cc3ccc(C(=O)Nc4nc5ccccc5n4CCCN(C)C)cc3n21 | -2.35 °C | 2.76 °C
50 | CC(=O)Nc1nc(CN2CCC[C@H](Cc3cc(C)nc(C)c3)C2)cs1 | -1.25 °C | 0.78 °C
51 | COc1ccc(CC[C@@H](OC(=O)[C@H]2CCCCN2C(=O)[C@@H](c2cc(OC)c(OC)c(OC)c2)C2CCCCC2)c2cccc(OCCN3CCOCC3)c2)cc1OC | -4.81 °C | -3.96 °C
52 | O=C(Nc1ccc(C(O)(C(F)(F)F)C(F)(F)F)cc1)c1ccc(C(F)(F)F)cc1 | 0.72 °C | 2.93 °C
53 | C/C=C1\C(=O)CC2C3CCC4=CC(=O)CC[C@]4(C)C3CC[C@]12C (stereo not given in full) | -1.36 °C | 
